Tested on: REC8 mRNA expression in gastric cancer cell lines
Test: Demethylation treatment with 5-Aza, REC8 mRNA by RT-PCR
Format: cell-based, human
Conditions: 2 uM 5-Aza for 5 days
Procedure: Gastric cancer cells were treated with 2 uM DNA demethylation agent 5-Aza-2′-deoxycytidine (5-Aza) (Sigma-Aldrich, St Louis, Mo.) for 5 days and medium was refreshed every day.
Total RNA was extracted from cell pellets or tissues using Qiazol® reagent (Qiagen, Valencia, Calif.), and cDNA was synthesized using Transcriptor Reverse Transcriptase (Roche, Indianapolis, Ind.). RT-PCR was performed using the GoTaq® DNA polymerase (Promega). qPCR was performed using SYBR Green master mixture on HT7900 system (Applied Biosystems, Foster City, Calif.). Primers used are listed in Table 5 and also published previously.^7

With `Nc1ncn([C@H]2C[C@H](O)[C@@H](CO)O2)c(=O)n1` [5-Aza, 5-Aza-2′-deoxycytidine] the “REC8 mRNA expression” value (AGS with REC8 expression/unmethylated) was “had no effect” and the “REC8 mRNA expression” value (cell lines with REC8 down-regulated/methylated (BGC823, SNU719, NCI-N87, MKN28, AGS-EBV)) was “restored”.

Reference: US10364471B2, “Tumor suppressor REC8 as a biomarker for gastric cancer” (The Chinese University of Hong Kong, priority 2017, dated 2019)
